Patent US9801960B2, “Probe for a biological specimen and labelling method and screening method using the probe” (CANON KABUSHIKI KAISHA, priority 2008, dated 2017)

How the values were obtained:
[1] = Storage stability of staining compound solution in DMSO; format: physicochemical; details: 10 ng/mL in DMSO, closed glass container, normal temperature, 1 month; rate of change of absorbance and fluorescence intensity
Procedure: A 10 ng/mL solution of each of the staining compounds of Labelled Examples 1 to 78 and Labelled Comparative Examples 1 and 2 in DMSO was prepared, charged into a well-closed container made of glass, and left to stand still at normal temperature for 1 month. The absorbance and the fluorescence intensity at the time of the start of a storage stability test were measured at a given wavelength, and their rates of change were examined (+++: rates of change of the absorbance and the fluorescence intensity are less than 5%, and thus, the storage stability is highly excellent; ++: rates of change of the absorbance and fluorescence intensity are 5 to 15%, and thus, the storage stability is excellent; and −: rates of change of the absorbance and fluorescence intensity are more than 15%, and thus, the storage stability is poor).

[2] = system: Zebrafish juveniles; assay: In vivo labelling of Zebrafish juveniles with probe for biological specimen; parameters: key to Staining property: +++: stained; −: no stained; key to Fluorescence sensitivity: +++: strongly observed; ++: moderately observed; +: weakly observed; −: no stained; details: 1 hour; for Site(s) to be labelled: 10 ng/mL in water, stereoscopic microscope; for Fluorescence sensitivity / Staining property: 10 ng/mL; for Fluorescence sensitivity: fluorescence intensity visually evaluated; for Staining property: visually evaluated
Procedure: Five juveniles of Zebrafish were put into one well of a well plate together with rearing water. After rearing water had been discharged, 1 mL of distilled water was added to the well, and a solution of a staining compound (1) in DMSO was further added thereto so as to achieve a concentration of 10 ng/mL, followed by gentle stirring (pipetting). Further, Egg Water was prepared by dissolving artificial seawater SEALIFE (manufactured by Marinetech Co., Ltd.) in distilled water at a concentration of 60 mg/L. After the whole had been left to stand for 1 hour, distilled water in the well was discharged and replaced by 1 mL of fresh Egg Water. In addition, such an operation that Egg Water was discharged and replaced by 1 mL of fresh Egg Water was repeated twice. One of the juveniles was taken out from the well onto a dish, supplemented with 100 μL of a 3% methylcellulose aqueous solution to fix the movement of the juvenile, and photographed with a stereoscopic microscope (MZ10F: manufactured by Leica Microsystems K.K.).
The same operation as that in Example 1 was performed except that the staining compound (1) used in Example 1 was changed to any one of the staining compounds described in Table 1.
The same operation as that in Example 1 was performed except that the staining compound (1) used in Example 1 was changed to any one of indocyanine green (ICG) and fluorescein.
The staining property of each of the staining compounds of Labelled Examples 1 to 78 and Labelled Comparative Examples 1 and 2 was visually evaluated (+++: stained and −: no stained).
The fluorescence intensity of each of the staining compounds of Labelled Examples 1 to 78 and Labelled Comparative Examples 1 and 2 was visually evaluated (+++: strongly observed, ++: moderately observed, +: weakly observed, and −: no stained).

[3] = Excitation and fluorescence emission wavelength measurement; format: physicochemical; parameters: Stokes shift (λem − λex): unit not given here; details: aqueous solution: 10 mg/mL solution in DMSO diluted 500-fold with purified water
Procedure: It should be noted that the excitation wavelength and the fluorescence emission wavelength of the staining compound were determined by measuring an aqueous solution, which had been obtained by diluting 500-fold a 10 mg/mL solution of the staining compound in DMSO with purified water, with a fluorescence spectrophotometer FL 4500 manufactured by Hitachi High-Technologies Corporation.

| Excitation wavelength λex [3] [nm] | Fluorescence emission wavelength λem [3] [nm] | Stokes shift (λem − λex) [3] | SMILES | Storage stability [1] | Site(s) to be labelled [2] | Fluorescence sensitivity [2] | Staining property [2] |
| --- | --- | --- | --- | --- | --- | --- | --- |
| 498 | 601 | 103 | N#C/C(=C\c1ccc2c(c1)C1CCCC1N2c1ccc(C=C(c2ccccc2)c2ccccc2)cc1)C(=O)O (stereo not drawn) [Dye 7] | +++ (rates of change of the absorbance and the fluorescence intensity are less than 5%, and thus, the storage stability is highly excellent) | blood vessel and liver | +++ | +++ |
| 530 | 690 | 160 | COc1ccc(N2c3ccc(/C=C4\C(=O)N(c5ccccc5)N=C4C(=O)O)cc3C3CCCC32)cc1 (stereo not drawn) [Dye 128] | +++ (rates of change of the absorbance and the fluorescence intensity are less than 5%, and thus, the storage stability is highly excellent) | blood vessel, liver, and gastrointestinal tract | ++ | +++ |
| 600 | 656 | 56 | C=CCN1C(=O)/C(=c2\s/c(=C/c3ccc4c(c3)C3CCCC3N4c3ccc(C=C(c4ccccc4)c4ccccc4)cc3)c(=O)n2CC(=O)OCC)SC1=S (stereo not drawn) [Dye 69] | +++ (rates of change of the absorbance and the fluorescence intensity are less than 5%, and thus, the storage stability is highly excellent) | gastrointestinal tract | +++ | +++ |

The remaining lines, values behind:

| SMILES | Excitation wavelength λex [3] [nm] | Fluorescence emission wavelength λem [3] [nm] | Stokes shift (λem − λex) [3] | Storage stability [1] | Site(s) to be labelled [2] | Fluorescence sensitivity [2] | Staining property [2] |
| --- | --- | --- | --- | --- | --- | --- | --- |
| COc1ccc2cc(N3c4ccc(/C=C5\C(=O)N(c6ccc(C(=O)O)cc6)N=C5C)cc4C4CCCC43)ccc2c1 (stereo not drawn) [Dye 43] | 569 | 649 | 80 | +++ (rates of change of the absorbance and the fluorescence intensity are less than 5%, and thus, the storage stability is highly excellent) |  | +++ | +++ |
| O=C(O)CN1C(=O)/C(=C\c2cc(Br)c3c(c2)C2CCCC2N3c2ccc(Br)cc2)SC1=S (stereo not drawn) [Dye 2] | 482 | 609 | 127 | +++ (rates of change of the absorbance and the fluorescence intensity are less than 5%, and thus, the storage stability is highly excellent) | blood vessel, liver, and gastrointestinal tract | +++ | +++ |
| CSc1ccc(N2c3ccc(/C=C4/SC(=S)N(CC(=O)O)C4=O)cc3C3CCCC32)cc1 (stereo not drawn) [Dye 17] | 527 | 636 | 109 | +++ (rates of change of the absorbance and the fluorescence intensity are less than 5%, and thus, the storage stability is highly excellent) | blood vessel, liver, and gastrointestinal tract | +++ | +++ |
| O=C(O)CN1C(=O)/C(=C2C=C/C(=C\c3ccc4c(c3)C3CCCC3N4c3ccccc3)C\2)SC1=S (stereo not drawn) [Dye 140] | 510 | 650 | 140 | +++ (rates of change of the absorbance and the fluorescence intensity are less than 5%, and thus, the storage stability is highly excellent) | gastrointestinal tract | +++ | +++ |
| O=C1OC2(c3ccc(O)cc3Oc3cc(O)ccc32)c2ccccc21 [fluorescein, reference compound] |  |  |  | ++ (rates of change of the absorbance and fluorescence intensity are 5 to 15%, and thus, the storage stability is excellent) |  | ++ | +++ |
